The record followed here is ChEMBL document CHEMBL6078704, “Redesigning Berberines and Sanguinarines to Target Soluble Epoxide Hydrolase for Enhanced Anti-Inflammatory Efficacy” (J Med Chem, 2024).

In data set [1] the target is T1, Bifunctional epoxide hydrolase 2 (Mus musculus, UniProt P34914).
T1 sequence (P34914 whole entry): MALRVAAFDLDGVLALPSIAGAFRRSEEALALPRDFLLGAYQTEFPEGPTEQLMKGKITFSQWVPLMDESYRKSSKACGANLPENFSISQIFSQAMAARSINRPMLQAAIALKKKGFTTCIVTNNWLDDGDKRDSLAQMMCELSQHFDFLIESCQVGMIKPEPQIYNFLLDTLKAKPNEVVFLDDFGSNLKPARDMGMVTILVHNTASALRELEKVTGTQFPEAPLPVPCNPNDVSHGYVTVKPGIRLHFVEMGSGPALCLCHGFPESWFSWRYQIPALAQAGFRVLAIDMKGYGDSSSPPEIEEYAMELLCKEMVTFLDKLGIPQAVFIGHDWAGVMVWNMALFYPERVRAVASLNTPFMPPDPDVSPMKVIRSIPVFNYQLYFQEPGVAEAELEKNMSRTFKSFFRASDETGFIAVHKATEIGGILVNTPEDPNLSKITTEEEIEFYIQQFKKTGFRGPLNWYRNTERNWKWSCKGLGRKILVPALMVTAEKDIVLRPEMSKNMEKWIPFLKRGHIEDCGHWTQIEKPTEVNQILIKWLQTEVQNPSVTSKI
Description: Inhibition of male C57BL/6J mouse brain sEH assessed as quantity of 14,15-DHET level measured after 15 mins incubation by HPLC-MS analysis.

The test system of another data set is HepG2. Description: Cytotoxicity against human HepG2 cells assessed as cell viability at 0.5 to 5 uM measured after 48 hrs by CCK-8 assay. It is filed as toxicity, cell-based. The conditions noted are these: hepg2, 48 h, dose 0.5-5 µM. In general terms: Tetrazolium assays rely on reduction of a dye to a coloured formazan, in cell work by metabolically active cells.

The subject of the next data set is HEK-293T. As to the kind of experiment: Cytotoxicity against human 293T cells assessed as cell viability at 0.5 to 5 uM measured after 48 hrs by CCK-8 assay. Type of data set: toxicity, cell-based. The note with it: dose 0.5-5 µM.
Data set [2] deals with Mus musculus. As to the kind of experiment: Anti-inflammatory activity in carrageen-induced paw edema BALB/c mouse model assessed as inhibition of soft tissue edema and inflammation measured immediately at 0.5 mg/kg, ip measured up to 6 hrs. Type of data set: functional.
In data set [3] the test system is Mus musculus. Description: Anti-inflammatory activity in carrageen-induced paw edema BALB/c mouse model assessed as inhibition of soft tissue edema and inflammation measured immediately at 20 mg/kg, po measured at 1 to 4 hrs. Type of data set: functional. The conditions noted are these: time 1-4 hrs.
In data set [4] the test system is Staphylococcus aureus. As to the kind of experiment: Antimicrobial activity against Staphylococcus aureus ATCC 29213 by microbroth dilution method. Type of data set: functional. (In general: Broth dilution looks for growth in wells or tubes with falling amounts of substance.)
Data set [5] deals with Staphylococcus aureus. As to the kind of experiment: Antimicrobial activity against methicillin-resistant Staphylococcus aureus 19B120 by microbroth dilution method. It is filed as functional.
Data set [6] concerns Mus musculus. As to the kind of experiment: Antiinflammatory activity against cerulein-induced acute pancreatitis in CD1 mouse assessed as increase in pancreatic 8,9-EET/DHET ratio at 20 mg/kg, ip pretreated with cerulein followed by compound injection on 30 and 150 mins and measured 6 hrs post cerulein treatment relative to model group. The conditions noted are these: time 30-360 min. Type of data set: functional.

Data set [7] relates to Mus musculus. As to the kind of experiment: Antiinflammatory activity against cerulein-induced acute pancreatitis in CD1 mouse assessed as increase in pancreatic 14,15-EET/DHET ratio at 20 mg/kg, ip pretreated with cerulein followed by compound injection on 30 and 150 mins and measured 6 hrs post cerulein treatment relative to model group. It is filed as functional. The conditions noted are these: time 30-360 min.

The test system of data set [8] is Mus musculus. As to the kind of experiment: Antiinflammatory activity against cerulein-induced acute pancreatitis in CD1 mouse assessed as increase in plasma 8,9-EET/DHET ratio at 20 mg/kg, ip pretreated with cerulein followed by compound injection on 30 and 150 mins and measured 6 hrs post cerulein treatment relative to model group. Type of data set: functional. The note with it: time 30-360 min.

Data set [9] concerns Mus musculus. As to the kind of experiment: Antiinflammatory activity against cerulein-induced acute pancreatitis in CD1 mouse assessed as increase in plasma 14,15-EET/DHET ratio at 20 mg/kg, ip pretreated with cerulein followed by compound injection on 30 and 150 mins and measured 6 hrs post cerulein treatment relative to model group. Type of data set: functional. The note with it: time 30-360 min.

In general, IC50 refers to the concentration at which inhibition is half-maximal. On to `O=C(NCc1ccc(OC(F)(F)F)cc1)Nc1ccc2c(c1)CN1CCc3cc4c(cc3C1C2)OCO4` (stereo unspecified), for which the IC50 in data set [1] came out at 1.49 nM.
In the case of `COc1cc2c(cc1OC)C1Cc3ccc(NC(=O)NC[C@@H]4CCCO4)cc3CN1CC2` (stereo partly specified), the IC50 in [1] came to 54.3 nM.
A word on the inhibition in vivo: it is the percentage by which the read-out fell short of the control. As to `COc1cc2c(cc1OC)CN1CCc3cc(NC(=O)NCc4ccc(OC(F)(F)F)cc4)ccc3C1C2` (stereo unspecified), the IC50 in [1] came out at 2.83 nM. Further, the Activity entry with HepG2 and with HEK-293T was “Non-toxic” in each case. For the same molecule, the inhibition in vivo at 0.5 mg/kg with Mus musculus [2] turned out to be 35%.
In the case of `CCC(=O)N1CCC(NC(=O)Nc2ccc(OC(F)(F)F)cc2)CC1`, the inhibition in vivo at 0.5 mg/kg in the data set on Mus musculus [2] was 15%. In addition, the inhibition in vivo at 20 mg/kg in the data set with Mus musculus [3] was found to be 25%.
Regarding `CC(C)CNC(=O)Nc1ccc2c(c1)CN(C)c1c-2ccc2ccccc12`, in [1], the IC50 worked out at 20.5 nM.
Regarding `COc1cc2c(cc1OC)C1Cc3ccc(NC(=O)NCc4cccc(OC(F)(F)F)c4)cc3CN1CC2` (stereo unspecified), the IC50 in data set [1] turned out to be 2.55 nM. Further, the Activity result in the data set with HepG2 and in the data set with HEK-293T was “Non-toxic” throughout. Further, the inhibition entry with Mus musculus [2] is “Active; Reduced Inhibition In Later Stages Of Experiment”.
Take `CCC(=O)N1CCC(CNC(=O)Nc2ccc3c(c2)CN2CCc4cc(OC)c(OC)cc4C2C3)CC1` (stereo unspecified): the IC50 in [1] was determined as 18.8 nM.
As to `CCC(=O)N1CCC(CNC(=O)Nc2ccc3c(c2)CN(C)c2c-3ccc3ccccc23)CC1`, the concentration for half-maximal inhibition (IC50) in [1] stood at 6.94 nM. Moreover, the Activity result in the data set with HepG2 and in the data set on HEK-293T was “Non-toxic” throughout.
Turning to `COc1cc2c(cc1OC)C1Cc3ccc(NC(=O)NCc4ccc(S(N)(=O)=O)cc4)cc3CN1CC2` (stereo unspecified), the IC50 in data set [1] came out at 17.3 nM.
As a reminder, the MIC is the smallest concentration in the dilution series that meets the test's criterion for growth inhibition. Read a high MIC as a less susceptible organism. On to `COc1ccc2cc3[n+](cc2c1OC)CCc1cc2c(cc1-3)OCO2` [BERBERINE], for which the minimum inhibitory concentration (MIC) against Staphylococcus aureus [4] turned out to be 64 µg/mL; against Staphylococcus aureus [5], 32 µg/mL.
Regarding `CC(C)CNC(=O)Nc1ccc2c(c1)CN1CCc3cc4c(cc3C1C2)OCO4` (stereo unspecified), the half-inhibitory concentration (IC50) in data set [1] was 9.98 nM.
As to `COc1cc2c(cc1OC)-c1cc3ccc(NC(=O)NCc4ccc(OC(F)(F)F)cc4)cc3c[n+]1CC2`, the IC50 in [1] amounted to 210 nM. In addition, the MIC in the data set on Staphylococcus aureus [4] and with Staphylococcus aureus [5] was 8 µg/mL in each case.
Consider `CCC(=O)N1CCC(CNC(=O)Nc2ccc3c(c2)CN2CCc4cc5c(cc4C2C3)OCO5)CC1` (stereo unspecified), for which the half-maximal inhibitory concentration (IC50) in data set [1] amounted to 15.6 nM. In addition, the Activity entry with HepG2 and in the data set with HEK-293T was “Non-toxic” throughout.
On to `COc1cc2c(cc1OC)CN1CCc3cc(NC(=O)NCc4ccc(OC(F)F)cc4)ccc3C1C2` (stereo unspecified), for which, in data set [1], the IC50 turned out to be 0.73 nM. The Activity entry with HepG2 and with HEK-293T was “Non-toxic” in each case.
Consider `CCC(=O)N1CCC(CNC(=O)Nc2ccc3c(c2)CCN2Cc4cc(OC)c(OC)cc4CC32)CC1` (stereo unspecified), for which the 50% inhibitory concentration (IC50) in data set [1] was 42.7 nM.
Same read-out and setting: under `COc1cc2c(cc1OC)-c1cc3ccc(NC(=O)NCc4ccc(OC(F)(F)F)cc4)cc3c(=O)n1CC2` stands 37.6 nM.
As for `COc1cc2c(cc1OC)C1Cc3ccc(NC(=O)NCc4ccc(S(C)(=O)=O)cc4)cc3CN1CC2` (stereo unspecified), the concentration for half-maximal inhibition (IC50) in [1] was found to be 6.13 nM. Moreover, the Activity result with HepG2 and with HEK-293T was “Non-toxic” throughout. For the same molecule, the inhibition in vivo at 0.5 mg/kg in the data set with Mus musculus [2] amounted to 25%.
Take `O=C(NCc1ccc(OC(F)F)cc1)Nc1ccc2c(c1)CN1CCc3cc4c(cc3C1C2)OCO4` (stereo unspecified): the half-maximal inhibitory concentration (IC50) in data set [1] came out at 0.67 nM. Besides, the Activity entry in the data set on HepG2 and in the data set on HEK-293T was “Non-toxic” in each case.
Take `COc1cc2cc3[n+](cc2cc1OC)CCc1cc(NC(=O)NCc2ccc(OC(F)(F)F)cc2)ccc1-3.[Cl-]`: the IC50 in data set [1] amounted to 39.1 nM. The values for the MIC with Staphylococcus aureus [4] and with Staphylococcus aureus [5] were 8 µg/mL and 4 µg/mL, respectively.
With `CN1Cc2cc(NC(=O)NCC3CCOCC3)ccc2-c2ccc3ccccc3c21`, the 50% inhibitory concentration (IC50) in data set [1] worked out at 5.56 nM. In addition, the Activity entry in the data set on HepG2 and with HEK-293T was “Non-toxic” each time.
As to `O=C(NCc1cccc(OC(F)(F)F)c1)Nc1ccc2c(c1)CN1CCc3cc4c(cc3C1C2)OCO4` (stereo unspecified), in data set [1], the IC50 is 2.34 nM.
Same read-out and setting: the result for `COc1cc2c(cc1OC)CN1CCc3cc(NC(=O)NCC4CCOCC4)ccc3C1C2` (stereo unspecified) reads 21.2 nM.
For the molecule `COc1cc2c(cc1OC)CN1CCc3cc(NC(=O)NCc4ccc(OC(F)(F)F)cc4)ccc3[C@H]1C2`, the Activity result in the data set on HepG2 and in the data set on HEK-293T was “Non-toxic” each time. Besides, the MIC against Staphylococcus aureus [4] and in the data set with Staphylococcus aureus [5] was more than 64 µg/mL each time. Also, the “fold change (FC)” value in the data set with Mus musculus [6] came out at 6.7; with Mus musculus [7] it was 18.5; in the data set on Mus musculus [8], 2; in the data set with Mus musculus [9], 3.3.
As for `COc1cc2c(cc1OC)C1Cc3ccc(NC(=O)NCC4COC4)cc3CN1CC2` (stereo unspecified), the 50% inhibitory concentration (IC50) in data set [1] was 2650 nM.
On the same count and under the same terms, under `CCC(=O)N1CCC(NC(=O)Nc2ccc3c(c2)CN2CCc4cc(OC)c(OC)cc4C2C3)CC1` (stereo unspecified) stands 143 nM.
`O=C(NCC1CCOCC1)Nc1ccc2c(c1)CN1CCc3cc4c(cc3C1C2)OCO4` (stereo unspecified): in data set [1], the IC50 stood at 15.9 nM.
Still for that read-out and setting: under `COc1cc2c(cc1OC)C1Cc3ccc(NC(=O)NCC4CCOCC4)cc3CN1CC2` (stereo unspecified) stands 19.4 nM; under `CCC(=O)N1CCC(NC(=O)Nc2ccc3c(c2)CN2CCc4cc5c(cc4C2C3)OCO5)CC1` (stereo unspecified), 97.1 nM.
Regarding `COc1cc2c(cc1OC)C1Cc3ccc(NC(=O)Nc4ccc(OC(F)(F)F)cc4)cc3CN1CC2` (stereo unspecified), in [1], the concentration for half-maximal inhibition (IC50) amounted to 40.7 nM.
On the same count and under the same terms, the result for `CN1Cc2cc(NC(=O)NCc3ccc(OC(F)(F)F)cc3)ccc2-c2ccc3ccccc3c21` reads 12.1 nM.
For `COc1cc2c(cc1OC)C1Cc3ccc(NC(=O)NCc4ccc(OC(F)(F)F)cc4)cc3CN1CC2` (stereo unspecified), the IC50 in data set [1] worked out at 0.86 nM. The Activity result with HepG2 and in the data set on HEK-293T was “Non-toxic” in each case. For the same molecule, the inhibition in vivo at 0.5 mg/kg with Mus musculus [2] turned out to be 35%.
Regarding `COc1cc2c(cc1OC)C1Cc3ccc(NC(=O)NCc4ccc(OC(F)F)cc4)cc3CN1CC2` (stereo unspecified), the IC50 in data set [1] worked out at 1.33 nM. The Activity entry in the data set with HepG2 and in the data set on HEK-293T was “Non-toxic” each time.
With `COc1cc2c(cc1OC)C1Cc3ccc(NC(=O)NCC4CCCCC4)cc3CN1CC2` (stereo unspecified), the IC50 in data set [1] turned out to be 4.98 nM.
In the case of `COc1cc2c(cc1OC)CN1CCc3cc(NC(=O)NCc4ccc(OC(F)(F)F)cc4)ccc3[C@@H]1C2`, the inhibition in vivo at 20 mg/kg in the data set on Mus musculus [3] came to 27%.
